The results in this text go back to ChEMBL document CHEMBL1201862, “PubChem BioAssay data set” (2004).

Among the test systems are CAKI-1; HL-60; HOP-62; KM12; M14; Malme-3M; NCI-H226; NCI-H522; OVCAR-8; SF-295; SF-539; SK-MEL-5; SN12C; SR; SW-620; TK-10; U-251; COLO 205; RPMI-8226.
Common to all, as to test: NCI tumour cell line growth inhibition, 48 h

SMILES strings stand for the structures.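 Following 48 hours of exposure in 96-well plates, responses at five concentrations were used to interpolate endpoints linearly. The concentration for 50% growth inhibition is given as GI50.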 Active and inactive are the calls of the source. No stated cut-off is given here; in the data, active = GI50 up to about 1.1 µM and inactive = higher.

For `CC(=O)CNC(=O)OC(C)(C)C`, the GI50 in the assay with CAKI-1, with HL-60, in the assay on HOP-62, in the assay on KM12, in the assay on M14 and in the assay with Malme-3M was > 100 µM (inactive) each time. Besides, the GI50 in the assay with NCI-H226, with NCI-H522, in the assay with OVCAR-8, in the assay on SF-295, in the assay on SF-539 and in the assay on SK-MEL-5 was > 100 µM (inactive) throughout. The GI50 in the assay on SN12C, in the assay on SR, with SW-620, in the assay on TK-10 and with U-251 was > 100 µM (inactive) in each case.
Consider `O=C1N[C@@H](O)[C@@H]2ON=C(c3ccccc3)[C@H]12`, for which the GI50 with CAKI-1, in the assay with COLO 205, in the assay on HL-60, in the assay with HOP-62, in the assay on KM12 and in the assay on M14 was > 100 µM (inactive) in each case. Further, the GI50 in the assay on Malme-3M, with NCI-H226, with OVCAR-8, with RPMI-8226, with SF-295 and in the assay on SF-539 was > 100 µM (inactive) in each case. Moreover, the GI50 with SK-MEL-5, in the assay with SN12C, in the assay on SR, in the assay on SW-620, in the assay on TK-10 and in the assay on U-251 was > 100 µM (inactive) each time.
Regarding `COc1cc(C=O)c(-c2cc3c(cc2C2(C)OCCS2)OCO3)c(OC)c1OC` (stereo not drawn), the GI50 with CAKI-1 is 11.6 µM (inactive); in the assay on COLO 205 it was 4.24 µM (inactive); in the assay with HL-60 it was 8.07 µM (inactive); in the assay on HOP-62 it was 15.5 µM (inactive); in the assay with KM12, 9.53 µM (inactive); in the assay with M14, 5.73 µM (inactive). Also, the GI50 in the assay on Malme-3M was 12 µM (inactive); in the assay with NCI-H226, 6.32 µM (inactive); in the assay on NCI-H522, 6.08 µM (inactive); in the assay on OVCAR-8, 19.1 µM (inactive); in the assay with RPMI-8226, 11.4 µM (inactive); in the assay on SF-295, 13.3 µM (inactive). Moreover, the GI50 with SF-539 is 5.85 µM (inactive); in the assay with SK-MEL-5 it was 9.14 µM (inactive); with SN12C it was 13.5 µM (inactive); with SR, 14.1 µM (inactive); with SW-620, 7.94 µM (inactive); with TK-10, 57.8 µM (inactive). For the same compound, in the assay with U-251, the GI50 is 15.5 µM (inactive).
For `C[C@H](N)C(=O)Nc1ccc(-c2nc3ccccc3s2)cc1Cl`, the GI50 was 10.7 µM (inactive) in the assay on CAKI-1; 12.5 µM (inactive) with COLO 205; 12.3 µM (inactive) in the assay with HOP-62; 15 µM (inactive) in the assay on KM12; 5.78 µM (inactive) in the assay on M14; 22.1 µM (inactive) in the assay with Malme-3M. In addition, the GI50 with NCI-H226 is 0.0745 µM (active); in the assay with NCI-H522 it was 20.5 µM (inactive); in the assay on OVCAR-8 it was 26 µM (inactive); with SF-295, 16.6 µM (inactive); in the assay with SK-MEL-5 it was 16.1 µM (inactive); with SN12C, 15.9 µM (inactive). Also, the GI50 with SR was 3.8 µM (inactive); in the assay with SW-620, 15.2 µM (inactive); in the assay with TK-10, 0.161 µM (active); in the assay on U-251, 14.6 µM (inactive).
In the case of `O=C(/C=C1/Nc2ccc([N+](=O)[O-])cc2NC1O)c1cccc([N+](=O)[O-])c1` (stereo not drawn), the GI50 is 56.9 µM (inactive) with CAKI-1; 12.1 µM (inactive) in the assay on COLO 205; 32.8 µM (inactive) in the assay with HL-60; 83.9 µM (inactive) in the assay on HOP-62; 21.5 µM (inactive) in the assay with M14; 38.4 µM (inactive) with Malme-3M. In addition, the GI50 was 34.8 µM (inactive) in the assay on NCI-H226; 18.7 µM (inactive) with NCI-H522; 19.1 µM (inactive) in the assay with OVCAR-8; 13.6 µM (inactive) in the assay on SF-295; 20.7 µM (inactive) in the assay on SF-539; 70.5 µM (inactive) with SK-MEL-5. In addition, the GI50 with SN12C is > 100 µM (inactive); with SR, > 100 µM (inactive); in the assay on SW-620, 72.1 µM (inactive); in the assay on TK-10, 35 µM (inactive); with U-251, 21 µM (inactive).
Turning to `CN(C)C(=S)Nc1nnc(Nc2ccccc2)s1`, the GI50 was > 100 µM (inactive) with CAKI-1; > 100 µM (inactive) in the assay on COLO 205; > 100 µM (inactive) in the assay on HL-60; > 100 µM (inactive) with HOP-62; > 10 µM (inactive) with KM12; > 100 µM (inactive) with M14. Further, the GI50 with Malme-3M is > 100 µM (inactive); with NCI-H226, > 100 µM (inactive); with NCI-H522, 9.51 µM (inactive); with OVCAR-8 it was > 100 µM (inactive); in the assay with SF-539, > 100 µM (inactive); in the assay with SK-MEL-5 it was 38.7 µM (inactive). Moreover, the GI50 in the assay with SN12C, in the assay with SR, in the assay on SW-620 and in the assay on U-251 was > 100 µM (inactive) each time.
Regarding `COC(=O)/C=C/c1cc(OC)c(OC)c(OC)c1`, the GI50 with CAKI-1, in the assay on COLO 205, with HL-60, with HOP-62, in the assay on KM12 and in the assay on M14 was > 100 µM (inactive) throughout. The GI50 was > 100 µM (inactive) in the assay with Malme-3M; 46.1 µM (inactive) in the assay with NCI-H226; 46.5 µM (inactive) in the assay on NCI-H522; > 100 µM (inactive) with OVCAR-8; > 100 µM (inactive) in the assay on SF-295; > 100 µM (inactive) in the assay on SF-539. Also, the GI50 in the assay on SK-MEL-5, in the assay with SN12C, in the assay on SR, in the assay on SW-620 and in the assay on TK-10 was > 100 µM (inactive) throughout.
As for `COc1ccc(/C(=N\NC(=N)N)C(c2ccc(OC)cc2)C2OC(=O)c3ccccc32)cc1` (stereo not drawn), the GI50 in the assay with CAKI-1, with COLO 205, in the assay on HL-60, in the assay on HOP-62, in the assay on KM12 and with M14 was > 100 µM (inactive) in each case. Further, the GI50 with Malme-3M, in the assay on NCI-H226, in the assay on NCI-H522, in the assay on OVCAR-8, with RPMI-8226 and with SF-295 was > 100 µM (inactive) in each case. In addition, the GI50 in the assay on SF-539, in the assay on SK-MEL-5, in the assay with SN12C, with SR, in the assay with SW-620 and in the assay with U-251 was > 100 µM (inactive) throughout.
